Test results taken from ChEMBL document CHEMBL6134819, “Discovery of novel tranylcypromine-indazole-based derivatives as LSD1 inhibitors for acute myeloid leukemia treatment” (Eur J Med Chem, 2025).
Calls of active or inactive are those of the source. No cut-off for these calls is given here.

Key:
[1] = AUC (0 to infinity) in male Sprague-Dawley rat at 10 mg/kg, po measured up to 24 hrs by LC-MS/MS analysis; format: ADME, organism-based; conditions: in vivo
[2] = Metabolic stability in rat liver microsomes assessed as half life measured up to 60 mins in presence of NADPH by LC-MS/MS analysis; format: ADME, Microsome
[3] = biological target: Voltage-gated inwardly rectifying potassium channel KCNH2 (Homo sapiens, UniProt Q12809); assay: Inhibition of human ERG by whole cell patch clamp assay; format: toxicity
MV4-11 [4] = assay: Induction of apoptosis in human MV4-11 cells assessed as increase in cleaved PARP level at 2 to 4 micromol/L measured after 72 hrs by Western blot analysis; format: functional, cell-based; conditions: dose 2-4 µmol/L
MV4-11 [5] = assay: Induction of apoptosis in human MV4-11 cells assessed as viable cells at 2 micromol/L measured after 48 hrs by Annexin V-FITC/PI double staining based flow cytometry analysis (reference value: 89.13%); format: functional; conditions: MV4-11, 48 h, dose 2 µmol/L, read-out: Activity
[6] = Metabolic stability in rat liver microsomes assessed as intrinsic clearance measured up to 60 mins in presence of NADPH by LC-MS/MS analysis; format: ADME, Microsome; conditions: read-out: CLH
[7] = Half life in male Sprague-Dawley rat at 10 mg/kg, po measured up to 24 hrs by LC-MS/MS analysis; format: ADME, organism-based; conditions: in vivo
[8] = biological target: T1, Amine oxidase [flavin-containing] A (Homo sapiens, UniProt P21397); assay: Inhibition of human N-terminal Flag-tagged MAOA extracted baculovirus infected in Sf9 cells measured after 0.5 hrs by MAO-Glo Assay
T1 sequence (P21397 whole entry): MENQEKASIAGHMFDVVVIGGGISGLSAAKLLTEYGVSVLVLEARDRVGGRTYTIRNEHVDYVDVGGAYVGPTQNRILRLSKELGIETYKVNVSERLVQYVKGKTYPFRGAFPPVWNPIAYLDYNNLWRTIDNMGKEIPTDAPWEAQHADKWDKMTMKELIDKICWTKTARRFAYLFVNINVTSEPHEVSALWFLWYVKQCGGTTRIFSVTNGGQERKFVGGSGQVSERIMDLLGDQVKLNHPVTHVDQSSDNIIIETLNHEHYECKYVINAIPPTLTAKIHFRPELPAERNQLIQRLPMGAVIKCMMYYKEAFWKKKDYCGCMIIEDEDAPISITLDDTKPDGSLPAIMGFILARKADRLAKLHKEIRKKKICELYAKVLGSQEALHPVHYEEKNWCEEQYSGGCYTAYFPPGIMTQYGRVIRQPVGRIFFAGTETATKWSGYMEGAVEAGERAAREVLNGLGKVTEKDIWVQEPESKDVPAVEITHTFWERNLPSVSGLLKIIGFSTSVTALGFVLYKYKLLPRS

MV4-11 [9] = assay: Antiproliferative activity against human MV4-11 cells assessed as inhibition of cell growth measured after 7 days by cell-titer glo assay; format: functional, cell-based; conditions: MV4-11, 168 h
[10] = Metabolic stability in mouse liver microsomes assessed as half life measured up to 60 mins in presence of NADPH by LC-MS/MS analysis; format: ADME, Microsome
[11] = AUC (0 to t) in male Sprague-Dawley rat at 1 mg/kg, iv measured up to 24 hrs by LC-MS/MS analysis; format: ADME, organism-based; conditions: in vivo
MV4-11 [12] = assay: Induction of apoptosis in human MV4-11 cells assessed as late apoptotic cells at 4 micromol/L measured after 48 hrs by Annexin V-FITC/PI double staining based flow cytometry analysis (reference value: 7.70 %); format: functional; conditions: dose 4 µmol/L, at 4 µM
MV4-11 [13] = assay: Induction of apoptosis in human MV4-11 cells assessed as increase in cleaved caspase-7 level at 2 to 4 micromol/L measured after 72 hrs by Western blot analysis; format: functional, cell-based; conditions: dose 2-4 µmol/L
THP-1 = assay: Antiproliferative activity against human THP-1 cells assessed as inhibition of cell growth measured after 7 days by cell-titer glo assay; format: functional, cell-based; conditions: THP-1, 168 h
MV4-11 [14] = assay: Induction of apoptosis in human MV4-11 cells assessed as viable cells at 3 micromol/L measured after 48 hrs by Annexin V-FITC/PI double staining based flow cytometry analysis (reference value: 89.13%); format: functional; conditions: MV4-11, 48 h, dose 3 µmol/L, read-out: Activity
MV4-11 [15] = assay: Induction of apoptosis in human MV4-11 cells assessed as early apoptotic cells at 2 micromol/L measured after 48 hrs by Annexin V-FITC/PI double staining based flow cytometry analysis (reference value: 2.01 %); format: functional; conditions: dose 2 µmol/L, at 2 µM
[16] = Cmax in male Sprague-Dawley rat at 1 mg/kg, iv measured up to 24 hrs by LC-MS/MS analysis; format: ADME, organism-based; conditions: in vivo
[17] = Metabolic stability in mouse liver microsomes assessed as intrinsic clearance measured up to 60 mins in presence of NADPH by LC-MS/MS analysis; format: ADME, Microsome; conditions: read-out: CLH
HL-60 = assay: Antiproliferative activity against human HL-60 cells assessed as inhibition of cell growth measured after 7 days by cell-titer glo assay; format: functional, cell-based; conditions: HL-60, 168 h
MV4-11 [18] = assay: Induction of apoptosis in human MV4-11 cells assessed as late apoptotic cells at 2 micromol/L measured after 48 hrs by Annexin V-FITC/PI double staining based flow cytometry analysis (reference value: 7.70 %); format: functional; conditions: dose 2 µmol/L, at 2 µM
[19] = Upregulation of CD86 expression in human MV4-11 cells at 4 micromol/L incubated for 48 hrs by flow cytometry analysis relative to control; format: functional; conditions: dose 4 µmol/L, at 4 µM
MV4-11 [20] = assay: Induction of apoptosis in human MV4-11 cells assessed as necrotic cells at 2 micromol/L measured after 48 hrs by Annexin V-FITC/PI double staining based flow cytometry analysis (reference value: 1.16 %); format: functional; conditions: dose 2 µmol/L, at 2 µM
MV4-11 [21] = assay: Induction of apoptosis in human MV4-11 cells assessed as necrotic cells at 4 micromol/L measured after 48 hrs by Annexin V-FITC/PI double staining based flow cytometry analysis (reference value: 1.16 %); format: functional; conditions: dose 4 µmol/L, at 4 µM
[22] = Cmax in male Sprague-Dawley rat at 10 mg/kg, po measured up to 24 hrs by LC-MS/MS analysis; format: ADME, organism-based; conditions: in vivo
[23] = AUC (0 to t) in male Sprague-Dawley rat at 10 mg/kg, po measured up to 24 hrs by LC-MS/MS analysis; format: ADME, organism-based; conditions: in vivo
[24] = Octanol-water partition coefficient, logP of the compound; format: physicochemical
[25] = biological target: T2, Lysine-specific histone demethylase 1A (Homo sapiens, UniProt O60341); assay: Inhibition of LSD1 in human MV4-11 cells assessed as increase in H3K4 expression level at 2 to 4 micromol/L measured after 48 hrs by Western blot analysis; format: cell-based; conditions: dose 2-4 µmol/L
[26] = biological target: T2, Lysine-specific histone demethylase 1A; assay: Inhibition of LSD1 in human MV4-11 cells assessed as increase in H3K4me1 expression level at 2 to 4 micromol/L measured after 48 hrs by Western blot analysis; format: cell-based; conditions: dose 2-4 µmol/L
[27] = Oral bioavailability in male Sprague-Dawley rat at 10 mg/kg measured up to 24 hrs by LC-MS/MS analysis; format: ADME, organism-based; conditions: in vivo
MV4-11 [28] = assay: Upregulation of CD86 expression in human MV4-11 cells incubated for 48 hrs by flow cytometry analysis; format: functional, cell-based; conditions: dose 2-4 µmol/L
MV4-11 [29] = assay: Induction of apoptosis in human MV4-11 cells assessed as increase in cleaved caspase-3 level at 2 to 4 micromol/L measured after 72 hrs by Western blot analysis; format: functional, cell-based; conditions: dose 2-4 µmol/L

Sequence of Voltage-gated inwardly rectifying potassium channel KCNH2 (Q12809 whole entry): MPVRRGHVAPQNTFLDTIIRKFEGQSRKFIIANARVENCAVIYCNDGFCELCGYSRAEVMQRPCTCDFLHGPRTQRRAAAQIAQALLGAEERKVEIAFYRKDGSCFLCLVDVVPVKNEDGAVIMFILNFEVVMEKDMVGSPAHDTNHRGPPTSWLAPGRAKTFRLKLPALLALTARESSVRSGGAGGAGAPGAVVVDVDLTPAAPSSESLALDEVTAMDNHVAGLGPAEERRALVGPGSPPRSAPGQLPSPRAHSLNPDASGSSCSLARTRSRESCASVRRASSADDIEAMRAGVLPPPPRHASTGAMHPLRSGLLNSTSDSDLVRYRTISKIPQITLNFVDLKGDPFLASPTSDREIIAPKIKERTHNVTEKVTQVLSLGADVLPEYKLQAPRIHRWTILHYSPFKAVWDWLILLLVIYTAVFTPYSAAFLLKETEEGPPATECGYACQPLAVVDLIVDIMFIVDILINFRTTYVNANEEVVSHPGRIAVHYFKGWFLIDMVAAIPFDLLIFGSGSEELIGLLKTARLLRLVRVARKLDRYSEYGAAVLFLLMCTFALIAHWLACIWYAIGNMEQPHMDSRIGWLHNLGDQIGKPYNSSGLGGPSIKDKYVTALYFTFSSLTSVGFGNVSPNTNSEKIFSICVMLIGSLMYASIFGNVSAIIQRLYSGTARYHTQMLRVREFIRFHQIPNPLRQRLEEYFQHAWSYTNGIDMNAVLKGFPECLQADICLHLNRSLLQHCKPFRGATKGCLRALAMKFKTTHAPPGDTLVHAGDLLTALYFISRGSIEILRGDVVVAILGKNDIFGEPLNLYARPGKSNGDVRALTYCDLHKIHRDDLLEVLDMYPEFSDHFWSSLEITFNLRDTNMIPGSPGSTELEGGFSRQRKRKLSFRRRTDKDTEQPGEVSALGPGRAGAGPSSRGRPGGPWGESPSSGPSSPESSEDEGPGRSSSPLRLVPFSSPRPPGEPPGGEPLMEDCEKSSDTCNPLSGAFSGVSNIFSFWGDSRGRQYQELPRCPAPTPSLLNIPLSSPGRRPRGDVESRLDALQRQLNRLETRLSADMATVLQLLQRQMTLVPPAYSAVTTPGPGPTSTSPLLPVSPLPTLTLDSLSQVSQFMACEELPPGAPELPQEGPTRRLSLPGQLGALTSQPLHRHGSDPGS

- AUC(0-inf) [1]: 290 ng·h/mL
- half-life [2]: 3.94 min
- CLint scaled [6]: 352 mL/min/kg
- half-life [7]: 86.4 min
- IC50 [8]: 840 nM
- IC50 (MV4-11 [9]): 1400 nM
- half-life [10]: 5.3 min
- AUC(0-t) at 24 h [11]: 481 ng·h/mL
- IC50 (THP-1): 1960 nM
- Cmax [16]: 869 ng/mL
- CLint scaled [17]: 261 mL/min/kg
- IC50 (HL-60): 1400 nM
- Cmax [22]: 89.8 ng/mL
- AUC(0-t) at 24 h [23]: 280 ng·h/mL
- logP [24]: 4.2
- inhibition [25]: Active
- inhibition [26]: Active
- bioavailability [27]: 6.01%
Compound: Cl.O=S(=O)(c1ccccc1)n1ncc2cc(-n3cc(CN[C@@H]4C[C@H]4c4ccc(F)c(F)c4)nn3)ccc21
- IC50 [3]: 576 nM
- Activity (MV4-11 [4]): Active
- viability at 2 µM (MV4-11 [5]): 80.4%
- Activity (MV4-11 [12]): 15.39%
- Activity (MV4-11 [13]): Active
- viability at 3 µM (MV4-11 [14]): 80.8%
- Activity (MV4-11 [15]): 2.52%
- Activity (MV4-11 [18]): 13.76%
- Activity [19]: 33.76%
- Activity (MV4-11 [20]): 3.32%
- Activity (MV4-11 [21]): 2.91%
- Activity (MV4-11 [28]): Dose-dependent-effect
- Activity (MV4-11 [29]): Active
